Patent publication US8883793B2, “Tubulin inhibitors and methods of using the same” (Development Center for Biotechnology, priority 2010, dated 2014)

Tests used:
[1] = test system: KB cell; experiment: MTS assay, growth inhibition of KB cells; format: cell-based; conditions: Homo sapiens, at 10 μM concentration, incubated for 72 h, read-out: Inhibition rate (%) (growth inhibition rate of MTS assay)
Method: MTS assay was performed in determining the growth inhibition of cancer cells. MTS ((3-(4,5-dimethylthiazol-2-yl)-5-(3-carboxymethoxyphenyl)-2-(4-sulfophenyl)-2H-tetrazolium)), in the presence of phenazine methosulfate (PMS) and reductases, produces a formazan product that has an absorbance maximum at 490-500 nm. MTS assays (and closely related MTT assay) are commonly used to measure cell viabilities or survivals.
Briefly, KB/Hela, NCI-H460, A375, Colo205, HCT-116, U937, MCF-7, MDA-MB-231, A549, H1975 cells were seeded into 96-well plate at 4000, 4000, 2000, 2000, 2000 cells/well. After 24 h for attachment, test compound was added into each well and incubated for 72 h. A total of 20 μl of MTS reaction reagent containing the MTS (Promega, Madison, Wis.) and PMS in a ratio of 20:1 was added into each well to react with dehydrogenase enzyme in survival cells. After 3 h, the absorbance at 490 nm was monitored using Emax precision microplate reader (Molecular Devices, Sunnyvale, Calif.).
The growth inhibition rate of MTS assay at KB cell of these compounds (at 10 μM concentration) are list in Table 5.

[2] = test system: biotinylated tubulin; experiment: Colchicine competitive-binding assay; conditions: at 10 μM concentration, 3H-colchicine; for binding rate (%) (colchicine competitive-binding): left column pair of Table 7
Method: The colchicine competitive-binding assay was done by using the Colchicine Site competitive Assay Kit (Cytoskeleton, Inc.), streptavidin-coated yttrium SPA beads(GE Healthcare, Inc.), and ^3H-colchicine(PerkinElmer, Inc.). Briefly, the binding mixture includes 1 μL^3H-labeled ligand (specific activity […]), and 1 μg biotinylated tubulin and 88 μg SPA beads in 200 μL assay buffer. The test compound and ^3H-labeled ligand were added before tubulin. After incubation at 37° C. for 2 hours, the SPA beads were allowed to settle down for 24 hours at room temperature, and scintillation counting was done on the TopCount Microplate Scintillation Counter.

binding rate (%) (colchicine competitive-binding) [2]	Inhibition rate (%) (colchicine competitive-binding) ([2]; right column pair of Table 7)	Compound	inhibition at 10 µM [1] [%]
54.4	–	Cc1ccc(CCC(=O)Nc2ncc(Oc3ccc(F)cc3)s2)o1 [Compound 64, N-[5-(4-Fluoro-phenoxy)-thiazol-2-yl]-3-(5-methyl-furan-2-yl)-propionamide]	95.9
58.6	–	O=C(CCc1cccnc1)Nc1ncc(Cc2ccc(F)cc2)s1 [Compound 4, N-[5-(4-Fluoro-benzyl)-thiazol-2-yl]-3-pyridin-3-yl-propionamide]	93.9
51.2	–	O=C(CCc1ccc(F)cc1)Nc1ncc(Cc2ccc(F)cc2)s1 [Compound 12, N-[5-(4-Fluoro-benzyl)-thiazol-2-yl]-3-(4-fluoro-phenyl)-propionamide]	96
–	56.9	COc1cccc(-c2cnc(NC(=O)/C=C/c3ccccc3)nc2)c1OC [Compound 101, N-[5-(2,3-Dimethoxy-phenyl)-pyrimidin-2-yl]-3-phenyl-acrylamide]	97.5
73.3	–	COc1ccc(Cc2cnc(NC(=O)CCc3ccc(F)cc3)s2)c(OC)c1OC [Compound 54, 3-(4-Fluoro-phenyl)-N-[5-(2,3,4-trimethoxy-benzyl)-thiazol-2-yl]-propionamide]	96.1
60.0	–	COc1ccc2cc(Cc3cnc(NC(=O)CCc4ccc(F)cc4)s3)ccc2c1 [Compound 13, 3-(4-Fluoro-phenyl)-N-[5-(6-methoxy-naphthalen-2-ylmethyl)-thiazol-2-yl]-propionamide]	94.6
63.8	–	COc1ccc(Cc2cnc(NC(=O)CCc3ccc(C)o3)s2)cc1 [Compound 5, N-[5-(4-Methoxy-benzyl)-thiazol-2-yl]-3-(5-methyl-furan-2-yl)-propionamide]	95.8
76.3	–	Cc1nc(NC(=O)CCc2ccccc2)sc1-c1ccc(F)cc1 [Compound 59, N-[5-(4-Fluoro-phenyl)-4-methyl-thiazol-2-yl]-3-phenyl-propionamide]	93.5
88.3	–	COc1ccc(Cc2cnc(NC(=O)CCc3ccc(C)o3)s2)c(OC)c1OC [Compound 56, 3-(5-Methyl-furan-2-yl)-N-[5-(2,3,4-trimethoxy-benzyl)-thiazol-2-yl]-propionamide]	94.7
–	–	O=C(CCc1ccc(F)cc1)Nc1ncc(Cc2ccc(C(F)(F)F)cc2)s1 [Compound 45, 3-(4-Fluoro-phenyl)-N-[5-(4-trifluoromethyl-benzyl)-thiazol-2-yl]-propionamide]	94
–	–	COc1cccc(CCC(=O)Nc2ncc(Cc3ccc(F)c(F)c3)s2)c1 [Compound 26, N-[5-(3,4-Difluoro-benzyl)-thiazol-2-yl]-3-(3-methoxy-phenyl)-propionamide]	92.9
–	–	COc1ccc(Cc2cnc(NC(=O)/C=C/c3ccc(C)o3)s2)cc1 [Compound 44, N-[5-(4-Methoxy-benzyl)-thiazol-2-yl]-3-(5-methyl-furan-2-yl)-acrylamide]	93.1
–	–	COc1cccc(CCC(=O)Nc2ncc(Sc3ccccc3)s2)c1 [Compound 68, 3-(3-Methoxy-phenyl)-N-(5-phenylsulfanyl-thiazol-2-yl)-propionamide]	94.4
–	–	Cc1ccc(CCC(=O)Nc2ccc(-c3ccccc3)cn2)s1 [Compound 114, 3-(5-Methyl-thiophen-2-yl)-N-(5-phenyl-pyridin-2-yl)-propionamide]	93.4
–	–	COc1ccc(Oc2cnc(NC(=O)CCc3ccc(C)o3)s2)cc1 [Compound 74, N-[5-(4-Methoxy-phenoxy)-thiazol-2-yl]-3-(5-methyl-furan-2-yl)-propionamide]	96.9
–	–	Cc1ccc(CCC(=O)Nc2ncc(Sc3ccccc3)s2)o1 [Compound 72, 3-(5-Methyl-furan-2-yl)-N-(5-phenylsulfanyl-thiazol-2-yl)-propionamide]	60
–	–	O=C(CCc1ccccc1)Nc1ncc(Cc2ccc(F)c(F)c2)s1 [Compound 25, N-[5-(3,4-Difluoro-benzyl)-thiazol-2-yl]-3-phenyl-propionamide]	94.2
–	–	O=C(CCc1ccc(F)cc1)Nc1ncc(Sc2ccccc2)s1 [Compound 65, 3-(4-Fluoro-phenyl)-N-(5-phenylsulfanyl-thiazol-2-yl)-propionamide]	96.3
–	–	Cc1ccc(CCC(=O)Nc2ncc(/C=C/c3ccccc3)cn2)o1 [Compound 95, 3-(5-Methyl-furan-2-yl)-N-(5-styryl-pyrimidin-2-yl)-propionamide]	93.6

binding rate (%) (colchicine competitive-binding) [2]	Inhibition rate (%) (colchicine competitive-binding) ([2]; right column pair of Table 7)	Compound	inhibition at 10 µM [1] [%]
–	–	Cc1cc(-c2ccccc2)cnc1NC(=O)CCc1ccccc1 [Compound 117, N-(3-Methyl-5-phenyl-pyridin-2-yl)-3-phenyl-propionamide]	94.6
–	–	COc1ccc(Cc2nnc(NC(=O)CCc3ccccc3)s2)cc1 [Compound 89, N-[5-(4-Methoxy-benzyl)-[1,3,4]thiadiazol-2-yl]-3-phenyl-propionamide]	96.9
–	–	O=C(CCc1ccccc1)Nc1ncc(/C=C/c2ccccc2)cn1 [Compound 97, 3-Phenyl-N-(5-styryl-pyrimidin-2-yl)-propionamide]	52.7
–	–	O=C(CCc1ccc(F)cc1)Nc1ncc(Cc2ccc(-c3ccccc3)cc2)s1 [Compound 39, N-(5-Biphenyl-4-ylmethyl-thiazol-2-yl)-3-(4-fluoro-phenyl)-propionamide]	94
–	–	Cn1c(-c2ccccc2)cnc1NC(=O)CCc1ccccc1 [Compound 90, N-(1-Methyl-5-phenyl-1H-imidazol-2-yl)-3-phenyl-propionamide]	96.6
–	–	Cc1cc(-c2ccc(N(C)C)cc2)cnc1NC(=O)C(C)Cc1ccccc1 (centres unmarked) [Compound 121, N-[5-(4-Dimethylamino-phenyl)-3-methyl-pyridin-2-yl]-2-methyl-3-phenyl-propionamide]	93.5
–	–	O=C(CCc1ccc(F)cc1)Nc1ncc(Cc2ccc(F)c(F)c2)s1 [Compound 28, N-[5-(3,4-Difluoro-benzyl)-thiazol-2-yl]-3-(4-fluoro-phenyl)-propionamide]	95
–	–	O=C(CCc1ccccc1)Nc1ncc(Cc2ccc3ccccc3c2)s1 [Compound 22, N-(5-Naphthalen-2-ylmethyl-thiazol-2-yl)-3-phenyl-propionamide]	95.6
–	–	O=C(CCc1ccc(F)cc1)Nc1ncc(Cc2ccc3ccccc3c2)s1 [Compound 23, 3-(4-Fluoro-phenyl)-N-(5-naphthalen-2-ylmethyl-thiazol-2-yl)-propionamide]	95.8
–	–	COc1cccc(-c2ccc(NC(=O)CCc3ccccc3)nc2)c1OC [Compound 116, N-[5-(2,3-Dimethoxy-phenyl)-pyridin-2-yl]-3-phenyl-propionamide]	94.1
–	–	O=C(Nc1ncc(-c2ccc(F)cc2)cn1)OCc1ccccc1 [Compound 109, [5-(4-Fluoro-phenyl)-pyrimidin-2-yl]-carbamic acid benzyl ester]	95.9
–	–	O=C(Nc1ncc(Cc2ccc3c(c2)OCO3)s1)OCc1ccccc1 [Compound 33, (5-Benzo[1,3]dioxol-5-ylmethyl-thiazol-2-yl)-carbamic acid benzyl ester]	92.4
–	–	O=C(CCc1cccnc1)Nc1ccc(Sc2ccccc2)cn1 [Compound 82, N-(5-Phenylsulfanyl-pyridin-2-yl)-3-pyridin-3-yl-propionamide]	95.6
–	–	Cc1ccc(CCC(=O)Nc2ncc(Cc3ccc4ccccc4c3)s2)o1 [Compound 21, 3-(5-Methyl-furan-2-yl)-N-(5-naphthalen-2-ylmethyl-thiazol-2-yl)-propionamide]	97.1
–	–	O=C(CCc1ccccc1)Nc1ncc(Cc2ccccc2)s1 [Compound 2, N-(5-Benzyl-thiazol-2-yl)-3-phenyl-propionamide]	95.5
–	–	O=C(CCc1cccnc1)Nc1ncc(Cc2ccc(C(F)(F)F)cc2)s1 [Compound 46, 3-Pyridin-3-yl-N-[5-(4-trifluoromethyl-benzyl)-thiazol-2-yl]-propionamide]	96
–	–	COc1cc(Cc2cnc(NC(=O)CCc3cccnc3)s2)cc(OC)c1OC [Compound 50, 3-Pyridin-3-yl-N-[5-(3,4,5-trimethoxy-benzyl)-thiazol-2-yl]-propionamide]	97.2
–	–	Cc1ccc(CCC(=O)Nc2ncc(Cc3ccc(F)c(F)c3)s2)o1 [Compound 30, N-[5-(3,4-Difluoro-benzyl)-thiazol-2-yl]-3-(5-methyl-furan-2-yl)-propionamide]	92.3
–	–	COc1cc(Cc2cnc(NC(=O)CCc3cccnc3)s2)ccc1OC(=O)OCc1ccccc1 [Compound 42, Carbonic acid benzyl ester 2-methoxy-4-[2-(3-pyridin-3-yl-propionylamino)-thiazol-5-ylmethyl]-phenyl ester]	91.2
